Read-outs that look alike come from different tables or passages of the source.
Molecular target: T1, histone deacetylase, subtype 1 (HDAC1) (Homo sapiens, UniProt Q13547)
T1 construct: Flag; made in house
Assay: HDAC1-Flag assay (in vitro deacetylation assay)
Assay type: biochemical
Conditions: concentration for 50% inhibition of deacetylation, substrate at Km, unit inferred, text gives nm, read-out: HDAC Inhibition
Procedure: Novel compounds were tested for their ability to inhibit histone deacetylase, subtype 1 (HDAC1) using an in vitro deacetylation assay. The enzyme source for this assay was an epitope-tagged human HDAC1 complex immuno-purified from stably expressing mammalian cells. The substrate consisted of a commercial product containing an acetylated lysine side chain (BIOMOL Research Laboratories, Inc., Plymouth Meeting, Pa.). Upon deacetylation of the substrate by incubation with the purified HDAC1 complex, a fluorophore is produced that is directly proportional to the level of deacetylation.

[1] = Table 1, benzothiophene backbone

T1 sequence (Q13547 whole entry): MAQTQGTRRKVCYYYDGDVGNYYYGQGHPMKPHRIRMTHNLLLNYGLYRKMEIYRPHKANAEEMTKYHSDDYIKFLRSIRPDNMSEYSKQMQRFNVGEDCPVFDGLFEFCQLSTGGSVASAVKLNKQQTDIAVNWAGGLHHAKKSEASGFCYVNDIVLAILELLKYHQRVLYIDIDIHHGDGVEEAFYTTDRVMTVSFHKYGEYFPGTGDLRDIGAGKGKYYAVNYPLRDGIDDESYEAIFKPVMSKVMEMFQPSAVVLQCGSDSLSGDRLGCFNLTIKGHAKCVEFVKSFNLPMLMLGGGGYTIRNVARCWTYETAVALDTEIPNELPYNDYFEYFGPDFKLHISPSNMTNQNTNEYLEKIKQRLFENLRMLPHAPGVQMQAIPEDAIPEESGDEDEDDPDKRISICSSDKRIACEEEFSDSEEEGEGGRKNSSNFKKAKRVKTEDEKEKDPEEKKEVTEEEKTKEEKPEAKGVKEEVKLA

IC50 [1]	IC50 (Table 2, thiophene backbone)	Compound
	70 nM	O=C(/C=C/c1ccc(C(=O)NO)s1)NCCCc1ccccc1 [Compound 66]
184 ± 58.2 nM		O=C(CN1CCCN(C(=O)OCc2ccccc2)CC1)Nc1ccc2cc(C(=O)NO)sc2c1 [Compound 121]
185 ± 52.3 nM		O=C(/C=C/c1ccccc1)Nc1ccc2sc(C(=O)NO)cc2c1 [Compound 16]
37 nM		O=C(CN1CCN(c2ccccc2)CC1)Nc1ccc2cc(C(=O)NO)sc2c1 [Compound 46]
74.5 ± 7.7 nM		O=C(NCCCc1ccccc1)c1ccc2sc(C(=O)NO)cc2c1 [Compound 112]
869 ± 108 nM		O=C(NO)c1cc2cc(CNC(c3ccccc3)c3ccccc3)ccc2s1 [Compound 140]
	9260 ± 1180 nM	O=C(NO)c1cc(-c2ccccc2)cs1 [Compound 199]
415 ± 91.6 nM		O=C(NO)c1cc2cc(CNCC(c3ccccc3)c3ccccc3)ccc2s1 [Compound 152]
1360 ± 47.3 nM		O=C(NC1CCc2ccccc21)c1ccc2sc(C(=O)NO)cc2c1 (stereo not drawn) [Compound 172]
	174 nM	O=C(NO)c1ccc(-c2cccc(CN3CCN(c4ccccc4)CC3)c2)s1 [Compound 69]
60.5 ± 2.1 nM		Cc1ccc(S(=O)(=O)Nc2ccc3cc(C(=O)NO)sc3c2)cc1 [Compound 43]
1170 ± 214 nM		O=C(NO)C(=O)Nc1ccc2cc(C(=O)NO)sc2c1 [Compound 24]
	705 ± 92.6 nM	O=C(NO)c1ccc(-c2cccc(CN(CCc3ccccc3)Cc3ccnc4ccccc34)c2)s1 [Compound 73]
	397 nM	O=C(/C=C/c1ccc(C(=O)NO)s1)Nc1ccccc1 [Compound 63]
	219 nM	O=C(NO)c1ccc(-c2ccccc2)s1 [Compound 54]
30.3 ± 6.5 nM		O=C(NCc1nc2ccccc2[nH]1)c1ccc2cc(C(=O)NO)sc2c1 [Compound 133]
53 nM		O=C(NO)c1cc2ccc(CNCc3ccccc3)cc2s1 [Compound 192]
1820 ± 508 nM		Nc1ccccc1NC(=O)c1cc2ccccc2s1 [Compound 103]
444 nM		O=C(Nc1ccc2sc(C(=O)NO)cc2c1)c1ccc2ccccc2n1 [Compound 38]

IC50 [1]	IC50 (Table 2, thiophene backbone)	Compound
350 ± 13.4 nM		CCOC(=O)Nc1ccc2cc(C(=O)NO)sc2c1 [Compound 31]
106 ± 13.4 nM		O=C(Nc1ccc2sc(C(=O)NO)cc2c1)c1ccccc1 [Compound 3]
62 nM		COc1ccc(OC)c(CC(=O)Nc2ccc3cc(C(=O)NO)sc3c2)c1 [Compound 51]
922 ± 174 nM		O=C(NC1CCc2ccccc21)c1ccc2cc(C(=O)NO)sc2c1 (stereo not drawn) [Compound 138]
149 ± 23.3 nM		CC(C)C(=O)Nc1ccc2sc(C(=O)NO)cc2c1 [Compound 35]
99 nM		COc1ccc(CN(Cc2ccc3cc(C(=O)NO)sc3c2)C2CCCCC2)cc1 [Compound 193]
14400 nM		CN(O)C(=O)c1cc2ccc(NC(=O)Cc3ccccc3)cc2s1 [Compound 102]
176 ± 13.4 nM		O=C(NO)c1cc2ccc(C(=O)N3CCN(c4ccccc4)CC3)cc2s1 [Compound 139]
238 ± 2.8 nM		CCOC(=O)Nc1ccc2sc(C(=O)NO)cc2c1 [Compound 34]
162 ± 40.3 nM		O=C(NCC(c1ccccc1)c1ccccc1)c1ccc2cc(C(=O)NO)sc2c1 [Compound 130]
424 nM		O=C(NO)c1ccc2sc(C(=O)NO)cc2c1 [Compound 42]
441 ± 98.2 nM		O=C(NO)c1cc2ccc(C(=O)N3CCN(c4ccc(Cl)cc4)CC3)cc2s1 [Compound 158]
150 ± 12.7 nM		CC(=O)N1CCN(CC(=O)Nc2ccc3cc(C(=O)NO)sc3c2)CC1 [Compound 114]
20 nM		COc1ccccc1CC(=O)Nc1ccc2cc(C(=O)NO)sc2c1 [Compound 52]
	570 nM	O=C(NO)c1ccc(-c2cccc(CN(CCc3ccccc3)Cc3cnc4ccccc4c3)c2)s1 [Compound 72]
88.5 ± 33.2 nM		O=C(NCCc1ccccc1)Nc1ccc2cc(C(=O)NO)sc2c1 [Compound 32]
	920 ± 569 nM	O=C(NO)c1ccc(-c2cccc(CN(CCCc3ccccc3)Cc3ccnc4ccccc34)c2)s1 [Compound 75]
31 ± 7 nM		O=C(Cc1ccccc1)Nc1ccc2sc(C(=O)NO)cc2c1 [Compound 15]
24 nM		O=C(CN1CCc2ccccc2C1)Nc1ccc2cc(C(=O)NO)sc2c1 [Compound 47]

Second part, the compound before the results:

Compound	IC50 [1]	IC50 (Table 2, thiophene backbone)
O=C(NO)c1cc2ccc(NS(=O)(=O)Cc3ccccc3)cc2s1 [Compound 11]	41 ± 11.3 nM	
COc1ccc(CCNCc2ccc3sc(C(=O)NO)cc3c2)cc1OC [Compound 143]	325 ± 57.4 nM	
O=C(NO)c1ccc(NC(=O)c2cccc3ccccc23)s1 [Compound 57]		363 ± 16.9 nM
O=C(/C=C/c1ccc(C(=O)NO)s1)NCC1CCCCC1 [Compound 67]		120 nM
O=C(Cc1ccccn1)Nc1ccc2cc(C(=O)NO)sc2c1 [Compound 109]	59 ± 15.5 nM	
O=C(NO)c1cc2cc(CNCc3cccc(Cl)c3)ccc2s1 [Compound 150]	144.5 ± 0.7 nM	
COc1ccccc1CNC(=O)c1ccc2sc(C(=O)NO)cc2c1 [Compound 166]	90 ± 5.6 nM	
O=C(NCc1ccc(Cl)cc1)c1ccc2sc(C(=O)NO)cc2c1 [Compound 171]	63.5 ± 4.9 nM	
O=C(Nc1ccc(C(=O)NO)s1)c1ccccc1 [Compound 56]		714 ± 122 nM
O=C(NO)c1ccc(-c2cccc(CN3CCc4ccccc4C3)c2)s1 [Compound 68]		417 nM
O=C(NC1CCN(Cc2ccccc2)CC1)c1ccc2cc(C(=O)NO)sc2c1 [Compound 129]	261 ± 89.2 nM	
O=C(NCc1ccccc1Cl)c1ccc2sc(C(=O)NO)cc2c1 [Compound 169]	66.5 ± 2.1 nM	
O=C(CN1CCN(c2cccc(Cl)c2)CC1)Nc1ccc2cc(C(=O)NO)sc2c1 [Compound 120]	97 ± 21 nM	
O=C(NC(Cc1ccccc1)c1ccccc1)c1ccc2cc(C(=O)NO)sc2c1 (stereo not drawn) [Compound 131]	223 ± 11.3 nM	
O=C(CCc1ccc(C(=O)NO)s1)Nc1nc2ccccc2s1 [Compound 197]		134 ± 7.7 nM
O=C(Nc1ccc2cc(C(=O)NO)sc2c1)c1ccccc1 [Compound 5]	204 ± 48.7 nM	
O=C(Nc1nc(-c2ccccc2)cs1)c1ccc2cc(C(=O)NO)sc2c1 [Compound 183]	4140 ± 1890 nM	
O=C(NCc1ccccc1)Nc1ccc2sc(C(=O)NO)cc2c1 [Compound 40]	72 nM	
O=C(NO)c1cc2ccc(NS(=O)(=O)c3ccc(-c4ccccc4)cc3)cc2s1 [Compound 12]	45 ± 32.5 nM	
COc1cccc(CNC(=O)c2ccc3sc(C(=O)NO)cc3c2)c1 [Compound 167]	94 ± 5.6 nM	
O=C(NCCc1ccccc1)c1ccc2sc(C(=O)NO)cc2c1 [Compound 105]	155 ± 13.4 nM	
CC(C)(C)OC(=O)CN(CC(=O)Nc1ccc2cc(C(=O)NO)sc2c1)CC(=O)OC(C)(C)C [Compound 118]	236 ± 28.9 nM	
O=C(CCc1ccc(C(=O)NO)s1)NCC(c1ccccc1)c1ccccc1 [Compound 83]		581 nM
O=C(/C=C/c1ccc(C(=O)NO)s1)NCc1ccccc1 [Compound 64]		206 nM
O=C(Nc1ccc2sc(C(=O)NO)cc2c1)c1ccc2ccccc2c1 [Compound 41]	413 nM	
O=C(Nc1ccc2sc(C(=O)NO)cc2c1)c1cccnc1 [Compound 37]	157 nM	

Compound	IC50 [1]	IC50 (Table 2, thiophene backbone)
O=C(NCc1cccc(Cl)c1)c1ccc2sc(C(=O)NO)cc2c1 [Compound 170]	88 nM	
O=C(NO)c1cc2cc(NS(=O)(=O)c3cccc4ccccc34)ccc2s1 [Compound 27]	102 ± 24 nM	
O=C(NCc1ccccc1)c1ccc2sc(C(=O)NO)cc2c1 [Compound 111]	76 ± 21.2 nM	
CN(O)C(=O)c1cc2ccc(N(C)C(=O)Cc3ccccc3)cc2s1 [Compound 113]	30775 ± 7 nM	
O=C(NO)c1cc2cc([N+](=O)O)ccc2s1 [Compound 22]	1740 ± 63.6 nM	
O=C(Nc1ccc2cc(C(=O)NO)sc2c1)c1cccnc1 [Compound 29]	262 ± 33.9 nM	
O=C(/C=C/c1ccc(C(=O)NO)s1)NC1CCCCC1 [Compound 79]		666 nM
O=C(NCc1ccc(Cl)cc1)c1ccc2cc(C(=O)NO)sc2c1 [Compound 176]	126 ± 31.1 nM	
O=C(NO)c1cc2ccc(NS(=O)(=O)c3ccccc3)cc2s1 [Compound 10]	46.5 ± 23.3 nM	
O=C(CCc1ccccc1)Nc1ccc2sc(C(=O)NO)cc2c1 [Compound 4]	61 ± 9.8 nM	
O=C(NO)c1cc2cc(CNCc3ccccc3Cl)ccc2s1 [Compound 149]	96.5 ± 34.4 nM	
O=C(NO)c1cc2cc(CNc3cccc(OCc4ccccc4)c3)ccc2s1 [Compound 165]	269 ± 63.6 nM	
O=C(CCc1ccc(C(=O)NO)s1)NCCCc1ccccc1 [Compound 82]		526 nM
CC(C)(C(=O)Nc1ccc2cc(C(=O)NO)sc2c1)c1ccc(Cl)cc1 [Compound 159]	536 ± 168 nM	
O=C(NCCc1ccccn1)c1ccc2cc(C(=O)NO)sc2c1 [Compound 134]	146 ± 10.3 nM	
COc1ccc(C(=O)Nc2ccc3cc(C(=O)NO)sc3c2)cc1OC [Compound 48]	280 nM	
O=C(NO)c1cc2cc(CNCCN3CCOCC3)ccc2s1 [Compound 163]	734 ± 34.6 nM	
O=C(NO)c1cc2cc(NS(=O)(=O)c3ccccc3)ccc2s1 [Compound 26]	166 ± 22.6 nM	
O=C(NO)c1cc2cc(CNCc3nc4ccccc4[nH]3)ccc2s1 [Compound 141]	116 ± 3.5 nM	
O=C(NO)c1cc2ccc(C(=O)N3CCCCC3)cc2s1 [Compound 136]	424 ± 72.7 nM	
O=C(NCCc1c[nH]c2ccccc12)c1ccc2sc(C(=O)NO)cc2c1 [Compound 173]	129 ± 18.3 nM	
O=C(Cc1ccc(F)cc1)Nc1ccc2sc(C(=O)NO)cc2c1 [Compound 84]	56.5 ± 16.2 nM	
O=C(CCc1ccc(C(=O)NO)s1)NCCc1ccccc1 [Compound 81]		690 nM
O=C(CN(CCc1ccccc1)Cc1ccccc1)Nc1ccc2cc(C(=O)NO)sc2c1 [Compound 117]	206 ± 50.9 nM	
O=C(NC(c1ccccc1)c1ccccc1)c1ccc2cc(C(=O)NO)sc2c1 [Compound 132]	284 ± 45.2 nM	
O=C(Nc1ccc(C(=O)NO)s1)c1ccc2ccccc2c1 [Compound 58]		730 ± 127 nM

Source: patent publication US7935724B2, “Thiophene and benzothiophene hydroxamic acid derivatives” (Merck HDAC Research, LLC, priority 2003, dated 2011)
